The NIST ThermoML archive (doi:10.1021/je060136y)
Values joined by “and” are separate entries in the source; they are usually repeats but may differ in a detail not shown here. Identical values can stand only once. ± gives the expanded uncertainty stated by the source.

Experiment: activity coefficient (dimensionless); of the first substance listed, at infinite dilution; xn = mol fraction of the nth substance listed
Conditions: Liquid, x1 = 0
[1] = 333.15 K, Rayleigh distillation method
[2] = 343.15 K, Rayleigh distillation method
[3] = 353.15 K, Rayleigh distillation method

For `NC1CCCCC1` [cyclohexylamine] + O, the activity coefficient (298.15 K, headspace analysis) was 19 ± 2, the activity coefficient (313.15 K, headspace analysis) was 29.1 ± 2.9 and the activity coefficient [1] was 36.7 ± 3.7. It also gave an activity coefficient [2] of 44.8 ± 4.5, an activity coefficient [3] of 51.2 ± 5.1 and an activity coefficient (372.65 K, circulation still method) of 64.5 ± 6.5. The activity coefficient (372.82 K, circulation still method) was 53.5 and 64.6.
For `O=[N+]([O-])c1ccccc1` [nitrobenzene] + O, the activity coefficient [1] was 2450 and 2320, the activity coefficient [2] was 2150 ± 220 and the activity coefficient [3] was 1640 and 1660. For the same compound, the activity coefficient (372.85 K, ciculation still method) was 1320 ± 130.
With `Nc1ccccc1` [aniline] + O the activity coefficient (298.15 K, headspace analysis) was 145 ± 15, the activity coefficient [1] was 130 ± 13 and the activity coefficient [2] was 121 and 119. For the same compound, the activity coefficient [3] was 111 ± 11 and the activity coefficient (372.47 K, ciculation still method) was 92.7 ± 9.3.
